Source: patent US5618791A, “Memory enhancing peptides” (Shanghai Institute of Biochemistry, priority 1992, dated 1997)
Square brackets hold non-standard residues; d marks the D form. Ends that are not written are not given here. Peptide text beside a SMILES is read from it. pGlu = O=C1CC[C@@H](C(=O)O)N1; Hme = not defined here

Columns and labels:
adult rats [1] = assay: Passive avoidance response of adult rats, step-through one trial learning test in a shuttle box; format: in vivo
Procedure: (§1) Biological activities of MEPs of the invention are confirmed by bioassay. Blood pressure measurements and urine output measurements were performed on adult rats after intravenous administration of MEPs under ether anesthesia. Passive avoidance behavior of adult rats was carried out in a step-through one trial learning test in a shuttle box, and brightness discrimination tests were performed in a radiant Y maze. Rats neonatally administered with MEPs of the invention were trained during an immature period and subsequently tested as adults.
(§2) Memory enhancing responses were assessed by two kinds of behavioral records, i.e., passive avoidance response of adult rats in a shuttle box and the performance in a radiant Y maze in the acquisition and retention of brightness discrimination of rats neonatally administered. The results are set out in Table I. All MEPs of the invention show significant positive behavioral responses when rats have received a subcutaneous administration of MEP within the dosage range 1 ng-1 μg per animal. MEPs of the invention show a memory enhancing potency 10-100 times that of AVP.

adult rats [2] = conditions: cited from earlier work
rats = assay: Brightness discrimination test in a radiant Y maze; format: in vivo, rat; conditions: adult rats; oral 20 μg/kg/day for 30 days
Procedure: as §1, §2
Additionally, oral administration of NLPR to adult rats at a dose of 20 μg/kg/day for 30 days produced a positive brightness discrimination assay.

Row | Molecule | Passive Avoidance adult rat effective dose (adult rats [1]) | acquisition of active or passive avoidance responses (adult rats [2]) | extinction of active or passive avoidance responses (adult rats [2]) | brightness discrimination assay (rats)
1 | NC(=O)CC[C@@H]1NC(=O)[C@H](Cc2ccccc2)NC(=O)[C@H](Cc2ccc(O)cc2)NC(=O)[C@@H](N)CSSC[C@@H](C(=O)N2CCC[C@H]2C(=O)N[C@@H](CCCN=C(N)N)C(=O)NCC(N)=O)NC(=O)[C@H](CC(N)=O)NC1=O [AVP, arginine vasopressin] | 300-1000 ng/200 g body wt. | no effect | retarded | 
2 | CC(=O)N[C@@H](CC(N)=O)C(=O)N[C@@H](CC(C)C)C(=O)N1CCC[C@H]1C(=O)N[C@@H](CCCNC(=N)N)C(N)=O [AcNLPR--NH2] (Ac-NLPR-NH2) | 3-10 ng/200 g body wt. |  |  | 
3 | CC(C)C[C@H](NC(=O)[C@@H](N)CC(N)=O)C(=O)N1CCC[C@H]1C(=O)N[C@@H](CCCNC(=N)N)C(=O)O [NLPR] (H-NLPR-OH) | 3-10 ng/200 g body wt. |  |  | positive
4 | CC(C)C[C@H](NC(=O)[C@H](CC(N)=O)NC(=O)[C@@H]1CCC(=O)N1)C(=O)N1CCC[C@H]1C(=O)N[C@@H](CCCNC(=N)N)C(=O)O [ZNLPR] ([pGlu]NLPR-OH) | 10 ng/200 g body wt. |  |  | 
5 | ZN(Hme)PR: pyroglutamyl-Asn-Hme-Pro-Arg; Hme = Homomethionine (Smethylcysteine) ([pGlu]N[Hme]PR; reading uncertain; also: printed as ZN(Hme)PR) | 10-100 ng/200 g body wt. |  |  | 
